Reference: publication PMC12199272, “Biochemical dissection of a fungal highly reducing polyketide synthase condensing region reveals basis for acyl group selection” (Chemical Science, 2025)

Molecular target: T1, SimG AT domain (LD-AT) (Tolypocladium inflatum, UniProt Z9QNP6F7M4)
T1 construct: excised AT domain with flanking linker domain (LD), active-site Ser706; recombinant; borders only in ESI
T1 sequence (Z9QNP6F7M4 1-440): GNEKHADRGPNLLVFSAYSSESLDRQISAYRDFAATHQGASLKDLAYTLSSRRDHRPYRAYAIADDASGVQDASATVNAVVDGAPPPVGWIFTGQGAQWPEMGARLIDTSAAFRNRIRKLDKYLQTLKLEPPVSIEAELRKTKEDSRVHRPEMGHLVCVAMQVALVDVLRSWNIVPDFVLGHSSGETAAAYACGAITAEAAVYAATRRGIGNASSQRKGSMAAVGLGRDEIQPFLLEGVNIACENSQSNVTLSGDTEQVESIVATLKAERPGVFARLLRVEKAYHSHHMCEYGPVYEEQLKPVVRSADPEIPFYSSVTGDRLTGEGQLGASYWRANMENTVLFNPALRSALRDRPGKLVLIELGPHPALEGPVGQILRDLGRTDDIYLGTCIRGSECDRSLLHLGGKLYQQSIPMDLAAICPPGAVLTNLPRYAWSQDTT
Assay: intact protein MS, acyl-enzyme formation
Assay type: biochemical
Conditions: covalent; active site Ser706; excess acyl-CoA; no ACP

SMILES	% loading of AT domain [%]
CC(=O)SCCNC(=O)CCNC(=O)[C@H](O)C(C)(C)COP(=O)(O)OP(=O)(O)OC[C@H]1O[C@@H](n2cnc3c(N)ncnc32)[C@H](O)[C@@H]1OP(=O)(O)O [acetyl-CoA]	35.3 ± 0.9
CC(C)(COP(=O)(O)OP(=O)(O)OC[C@H]1O[C@@H](n2cnc3c(N)ncnc32)[C@H](O)[C@@H]1OP(=O)(O)O)[C@@H](O)C(=O)NCCC(=O)NCCSC(=O)CC(=O)O [malonyl-CoA]	64.5 ± 1.4

Molecular target: T1, SimG AT domain (LD-AT)
Assay: intact protein MS, acyl-enzyme formation
Assay type: biochemical
Conditions: covalent; active site Ser706

SMILES	% acylation of AT domain
CCCC(=O)SCCNC(=O)CCNC(=O)[C@H](O)C(C)(C)COP(=O)(O)OP(=O)(O)OC[C@H]1O[C@@H](n2cnc3c(N)ncnc32)[C@H](O)[C@@H]1OP(=O)(O)O [butyryl-CoA]	good levels of AT transacylation were observed for C3–C10 substrates
CCCCCCCCCC(=O)SCCNC(=O)CCNC(=O)[C@H](O)C(C)(C)COP(=O)(O)OP(=O)(O)OC[C@H]1O[C@@H](n2cnc3c(N)ncnc32)[C@H](O)[C@@H]1OP(=O)(O)O [decanoyl-CoA]	good levels of AT transacylation were observed for C3–C10 substrates
CCCCCC(=O)SCCNC(=O)CCNC(=O)[C@H](O)C(C)(C)COP(=O)(O)OP(=O)(O)OC[C@H]1O[C@@H](n2cnc3c(N)ncnc32)[C@H](O)[C@@H]1OP(=O)(O)O [hexanoyl-CoA]	good levels of AT transacylation were observed for C3–C10 substrates
CC(C(=O)O)C(=O)SCCNC(=O)CCNC(=O)[C@H](O)C(C)(C)COP(=O)(O)OP(=O)(O)OC[C@H]1O[C@@H](n2cnc3c(N)ncnc32)[C@H](O)[C@@H]1OP(=O)(O)O (some centres unmarked) [methylmalonyl-CoA]	methylmalonyl-CoA was able to acylate the AT domain
CCCCCCCC(=O)SCCNC(=O)CCNC(=O)[C@H](O)C(C)(C)COP(=O)(O)OP(=O)(O)OC[C@H]1O[C@@H](n2cnc3c(N)ncnc32)[C@H](O)[C@@H]1OP(=O)(O)O [octanoyl-CoA]	good levels of AT transacylation were observed for C3–C10 substrates
CCC(=O)SCCNC(=O)CCNC(=O)[C@H](O)C(C)(C)COP(=O)(O)OP(=O)(O)OC[C@H]1O[C@@H](n2cnc3c(N)ncnc32)[C@H](O)[C@@H]1OP(=O)(O)O [propionyl-CoA]	good levels of AT transacylation were observed for C3–C10 substrates
